Series [1] can be described thus: Pharmacokinetics after a single oral dose in test persons (Table 1).
Source text: (§1) Pharmacokinetic parameters after taking a (single) oral
(§2) ibuprofen active substance) (4 test persons)
Series [2] in a line: clinical. As to conditions: human, in vivo, po.
Source text: as §1, §2
The mark [3] stands for this setting: single oral dose, tablet, 150 mg ibuprofen active substance, 4 test persons, Mean ± SD.

Structures are written as SMILES.

Regarding `CC(C)Cc1ccc([C@H](C)C(=O)O)cc1.CNC[C@H](O)[C@@H](O)[C@H](O)[C@H](O)CO` [Sugar complex, S(+)-ibuprofen-N-methyl-2-deoxy-glucitol], the “tmax (rapid onset effect)” value in series [1] (150 mg active substance) fell in the range of 0.25 to 0.333 h. Further, in series [1] (setting [3]), the AUC (commonly the area under the concentration-time curve, a measure of exposure) turned out to be 55000 ± 10200 ng·h/mL; the maximum concentration (Cmax) (as a rule, the maximum level reached in the sampled fluid or tissue) was 24500 ± 6700 ng/mL; the tlag is listed as 0.1 ± 0.02 h; the tmax stood at 0.25 ± 0.11 h.
In turn, `CC(C)Cc1ccc([C@H](C)C(=O)O)cc1` [S(+)-ibuprofen free acid, S(+)-ibuprofen, reference compound] showed a tmax in series [2] of 2.1 ± 0.2 h. The same compound came in with a tlag in series [1] (setting [3]) of 0.50 ± 0.1 h.

Source of the values: US5604206A, “Complexes containing S(+) phenyl alkane acids and amino sugars” (priority 1990, dated 1997).
